Biological target: T1, Human GLP-1 receptor (Homo sapiens, UniProt P43220)
T1 construct: expressed in transfected cells
Assay: Measurement of GLP-1 receptor agonist activity (cAMP assay)
Assay type: cell-based
Conditions: cAMP increase in GLP-1 R/CHO-K1 cells, 2 nM human GLP-1 (7-36) = 100%, DMSO only = 0%; for Emax: CHO-K1, maximum effect, read-out: Emax
Procedure, shortened: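 hGLP-1R/CHO-K1 cells in HBSS with 0.1% BSA, 20 mM HEPES, 0.1 mM IBMX and 0.2 mM RO20-1724 exposed to compound plus forskolin (400 μM stock) for 1 h at 37 °C. Intracellular cAMP read by HTRF (cAMP-d2/anti-cAMP cryptate, 1 h at room temperature).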

T1 sequence (P43220 24-463): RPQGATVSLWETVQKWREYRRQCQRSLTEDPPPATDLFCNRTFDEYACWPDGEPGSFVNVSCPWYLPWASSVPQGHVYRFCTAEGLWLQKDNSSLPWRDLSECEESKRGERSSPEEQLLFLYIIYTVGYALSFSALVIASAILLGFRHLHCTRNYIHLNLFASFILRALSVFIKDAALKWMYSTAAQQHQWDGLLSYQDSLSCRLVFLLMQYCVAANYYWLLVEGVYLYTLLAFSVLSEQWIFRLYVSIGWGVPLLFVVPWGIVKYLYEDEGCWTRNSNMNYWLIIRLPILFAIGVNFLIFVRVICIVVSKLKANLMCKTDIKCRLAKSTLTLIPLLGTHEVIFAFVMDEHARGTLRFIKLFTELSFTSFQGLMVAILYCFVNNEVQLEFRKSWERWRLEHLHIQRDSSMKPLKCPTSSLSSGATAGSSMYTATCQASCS

C[C@H]1c2nc(OCc3ccc(OC(F)F)cc3F)c(C(F)(F)F)cc2CCN1Cc1nc2ccc(C(=O)O)nc2n1C[C@@H]1CCO1 [Compound I-289]
Emax: 117%
EC50: 0.311 nM

C[C@H]1c2nc(OCc3ccc(F)cc3)c(C(F)(F)F)cc2CCN1Cc1nc2ccc(C(=O)O)nc2n1C[C@@H]1CCO1 [Compound I-290]
Emax: 118%
EC50: 0.266 nM

C[C@H]1c2nc(OCc3c(F)cc(Cl)cc3F)c(C(F)(F)F)cc2CCN1Cc1nc2ccc(C(=O)O)nc2n1C[C@@H]1CCO1 [Compound I-291]
Emax: 120%
EC50: 0.0864 nM

C[C@H]1c2nc(OCc3c(F)cc(F)cc3F)c(C(F)(F)F)cc2CCN1Cc1nc2ccc(C(=O)O)nc2n1C[C@@H]1CCO1 [Compound I-292]
Emax: 121%
EC50: 0.146 nM

O=C(O)c1ccc2nc(CN3CCc4cc(C(F)(F)F)c(OCc5ccc(Cl)cc5)nc4C3)n(C[C@@H]3CCO3)c2c1F [Compound I-294]
Emax: 97.7%

Cc1ccc(COc2nc3c(cc2C(F)(F)F)CCN(Cc2nc4ccc(C(=O)O)c(F)c4n2C[C@@H]2CCO2)C3)cc1 [Compound I-295]
Emax: 108%
EC50: 1.29 nM

COc1cc(Cl)ccc1COc1nc2c(cc1C(F)(F)F)CCN(Cc1nc3ccc(C(=O)O)c(F)c3n1C[C@@H]1CCO1)C2 [Compound I-296]
Emax: 117%

O=C(O)c1ccc2nc(CN3CCc4cc(C(F)(F)F)c(OCc5ccc(F)cc5F)nc4C3)n(C[C@@H]3CCO3)c2c1F [Compound I-297]
Emax: 102%
EC50: 0.818 nM

O=C(O)c1ccc2nc(CN3CCc4cc(C(F)(F)F)c(OCc5ccc(Cl)cc5Cl)nc4C3)n(C[C@@H]3CCO3)c2c1F [Compound I-298]
Emax: 109%
EC50: 0.317 nM

O=C(O)c1ccc2nc(CN3CCc4cc(C(F)(F)F)c(OCc5cc(F)c(Cl)cc5F)nc4C3)n(C[C@@H]3CCO3)c2c1F [Compound I-299]
Emax: 115%
EC50: 0.42 nM

N#Cc1ccc(COc2nc3c(cc2C(F)(F)F)CCN(Cc2nc4ccc(C(=O)O)c(F)c4n2C[C@@H]2CCO2)C3)c(F)c1 [Compound I-300]
Emax: 112%

O=C(O)c1ccc2nc(CN3CCc4cc(C(F)(F)F)c(OCc5c(F)cc(Cl)cc5F)nc4C3)n(C[C@@H]3CCO3)c2c1F [Compound I-301]
Emax: 117%

O=C(O)c1ccc2nc(CN3CCc4cc(C(F)(F)F)c(OCc5ccc(Cl)cc5)nc4C3)n(C[C@@H]3CCO3)c2n1 [Compound I-302]
Emax: 110%
EC50: 1.76 nM

COc1cc(Cl)ccc1COc1nc2c(cc1C(F)(F)F)CCN(Cc1nc3ccc(C(=O)O)nc3n1C[C@@H]1CCO1)C2 [Compound I-303]
Emax: 119%
EC50: 0.681 nM

O=C(O)c1ccc2nc(CN3CCc4cc(C(F)(F)F)c(OCc5ccc(Cl)cc5Cl)nc4C3)n(C[C@@H]3CCO3)c2n1 [Compound I-304]
Emax: 115%
EC50: 0.869 nM

O=C(O)c1ccc2nc(CN3CCc4cc(C(F)(F)F)c(OCc5cc(F)c(Cl)cc5F)nc4C3)n(C[C@@H]3CCO3)c2n1 [Compound I-305]
Emax: 107%
EC50: 0.949 nM

O=C(O)c1ccc2nc(CN3CCc4cc(C(F)(F)F)c(OCc5ccc(Cl)cc5F)nc4C3)n(C[C@@H]3CCO3)c2n1 [Compound I-306]
Emax: 98.7%
EC50: 0.876 nM

C[C@H]1c2nc(OCc3ccc(F)cc3)c(C(F)(F)F)cc2CCN1Cc1nc2c(F)cc(C(=O)O)cc2n1C[C@@H]1CCO1 [Compound I-307]
Emax: 115%
EC50: 0.0609 nM

C[C@H]1c2nc(OCc3ccc(F)cc3)c(C(F)(F)F)cc2CCN1Cc1nc2ccc(C(=O)O)c(F)c2n1C[C@@H]1CCO1 [Compound I-308]
Emax: 115%
EC50: 0.0871 nM

C[C@H]1c2cc(OCc3ccc(Cl)cn3)c(Cl)cc2CCN1Cc1nc2ccc(C(=O)O)cc2n1C[C@@H]1CCO1 [Compound I-309]
Emax: 84.3%
EC50: 2.28 nM

COc1cc(Cl)ccc1COc1cc2c(cc1Cl)CCN(Cc1nc3ccc(C(=O)O)cc3n1C[C@@H]1CCO1)[C@H]2C [Compound I-310]
Emax: 91%
EC50: 0.415 nM

C[C@H]1c2cc(OCc3ccc(Cl)cc3Cl)c(Cl)cc2CCN1Cc1nc2ccc(C(=O)O)cc2n1C[C@@H]1CCO1 [Compound I-311]
Emax: 124%
EC50: 0.972 nM

C[C@H]1c2cc(OCc3c(F)cc(Cl)cc3F)c(Cl)cc2CCN1Cc1nc2ccc(C(=O)O)cc2n1C[C@@H]1CCO1 [Compound I-312]
Emax: 102%
EC50: 2.03 nM

Cc1ccc(COc2cc3c(cc2Cl)CCN(Cc2nc4ccc(C(=O)O)nc4n2C[C@@H]2CCO2)[C@H]3C)cc1 [Compound I-313]
Emax: 94%
EC50: 7.87 nM

COc1cc(Cl)ccc1COc1cc2c(cc1Cl)CCN(Cc1nc3ccc(C(=O)O)nc3n1C[C@@H]1CCO1)[C@H]2C [Compound I-314]
Emax: 98.3%
EC50: 0.537 nM

C[C@H]1c2cc(OCc3ccc(Cl)cc3F)c(Cl)cc2CCN1Cc1nc2ccc(C(=O)O)nc2n1C[C@@H]1CCO1 [Compound I-315]
Emax: 94.3%
EC50: 2.1 nM

Reference: patent US20240217966A1, “PHARMACEUTICAL COMPOSITION CONTAINING GLP-1 RECEPTOR AGONIST HAVING FUSED RING” (Shionogi & Co., Ltd., priority 2021, published 2024)
